Patent publication US9000189B2, “Biphenyl-substituted spirocyclic ketoenols” (Bayer CropScience AG, priority 2006, dated 2015)
Read-outs that look alike come from different tables or passages of the source. Each block holds one molecule with its values, some of them ahead of it.

Legend:
[1] = Determination of the log P values by HPLC on a reversed-phase column (C18), acidic range; type: physicochemical; details: HPLC reversed-phase C18, 43° C., acidic range (pH 2.3)
Description: Determination of the Log P Values
The log P values given in the table were determined in accordance with EEC Directive 79/831 Annex V.A8 by HPLC (High Performance Liquid Chromatography) on a reversed-phase column (C18). Temperature: 43° C.
Mobile phases for the determination in the acidic range (pH 2.3): 0.1% aqueous phosphoric acid, acetonitrile; linear gradient from 10% acetonitrile to 90% acetonitrile
The calibration was carried out using unbranched alkan-2-ones (having 3 to 16 carbon atoms) with known log P values (determination of the log P values by the retention times using linear interpolation between two successive alkanones).
The lambda max values were determined in the maxima of the chromatographic signals using the UV spectra from 200 nm to 400 nm.

[2] = system: green peach aphid (Myzus persicae); experiment: Example 3: Myzus test (MYZUPE spray treatment); type: in vivo; details: 144 h, read-out: efficacy (effect in %, aphids killed)
[3] = system: larvae of the mustard beetle (Phaedon cochleariae); experiment: Example 1: Phaedon test (PHAECO spray treatment); details: 168 h, read-out: efficacy (effect in %, beetle larvae killed)
[4] = system: caterpillars of the army worm (Spodoptera frugiperda); experiment: Example 2: Spodoptera frugiperda test (SPODFR spray treatment); type: in vivo; details: application rate 100 g/ha, after 7 d
[5] = Example A: penetration of active compounds through enzymatically isolated cuticles of apple leaves; type: in vitro ADME, apple trees of the Golden Delicious variety; details: 500 ppm in DMF/emulsifier W 7:1 (w/w), 20° C., 60% rh
Source text: Boosting of the penetration into the plant by ammonium salts or phosphonium salts, and synergistic boosting of penetration into the plants by ammonium/phosphonium salts in combination with penetration promoters
This test measured the penetration of active compounds through enzymatically isolated cuticles of apple leaves.
The leaves used were cut in the fully developed state from apple trees of the Golden Delicious variety. The cuticles were isolated as follows: • first of all, leaf discs labelled on the underside with dye and formed by punching were filled by means of vacuum infiltration with a pectinase solution (0.2% to 2% strength) buffered to a pH of between 3 and 4, • sodium azide was then added and • the leaf discs thus treated were left to stand until the original leaf structure broke down and the non-cellular cuticle underwent detachment.
After that, only those cuticles from the top leaf sides that were free from stomata and hairs were used. They were washed a number of times in alternation with water and a buffer solution of pH 7. The clean cuticles obtained were, finally, applied to Teflon plaques, smoothed with a gentle jet of air, and dried.
In the next step the cuticular membranes obtained in this way were placed in stainless steel diffusion cells (=transport chambers) for the purpose of membrane transport investigations. […]
The diffusion cells were filled with a 30% strength ethylene glycol/water solution. Penetration was determined by applying 10 μl of the spray liquor of the composition below to the outer side of each of the cuticles. […]
After the spray liquors had been applied, the water was evaporated and the chambers were inverted and placed into theromstated troughs, in which the temperature and humidity over the cuticles was adjustable by means of a gentle stream of air onto the cuticles, with the spray coating (20° C., 60% rh). At regular intervals, samples were taken using an autosampler, and the amount of active compound was determined using HPLC. […]

[6] = system: green peach aphid (Myzus persicae); experiment: Example 13: activity boost through ammonium/phosphonium salts in combination with penetrants, Myzus persicae test; type: in vivo; details: for Kill (%) after 6 d +RME 1000 pm: +RME 1000 pm (rapeseed oil methyl ester 500 EW); for Kill (%) after 6 d: no additive, bell pepper plants sprayed to runoff
Source text: Activity Boost Through Ammonium/Phosphonium Salts in Combination with Penetrants
(§1) Solvent: 7 parts by weight of dimethylformamide
(§2) Emulsifier: 2 parts by weight of alkylaryl polyglycol ether
(§3) For application with ammonium salts or phosphonium salts and penetration promoters (rapeseed oil methyl ester 500 EW) these are in each case added in a concentration of 1000 ppm to the spray liquor.
Bell pepper plants (Capsicum annuum) heavily infested by the green peach aphid (Myzus persicae) are sprayed to runoff point with the preparation of active compound at the desired concentration.
(§4) After the desired period of time, the kill in % is determined.

[7] = system: cotton aphid (Aphis gossypii); experiment: Example 14: Aphis gossypii test (spray to runoff, with ammonium salts and penetrants); type: in vivo; details: for Kill (%) after 6 d +AS + RME 1000 ppm each: + AS and RME 1000 ppm each; for Kill (%) after 6 d +AS 1000 ppm: + ammonium sulphate 1000 ppm; for Kill (%) after 6 d +RME 1000 pm: + rapeseed oil methyl ester; for Kill (%) after 6 d: active compound alone
Source text: as §1, §2, §3
Cotton plants (Gossypium hirsutum) which are heavily infested by the cotton aphid (Aphis gossypii) are sprayed to runoff point with the preparation of active compound at the desired concentration.
as §4

[8] = reversed-phase HPLC column (C18)
[9] = application rate 500 g/ha, after 6 d

Structure (SMILES): Cc1ccc(-c2ccc(F)cc2)cc1C1=C(O)C2(CCOCC2)OC1=O [Example I-2-a-12]
logP [1]: 2.62

Structure (SMILES): CCOC(=O)OC1=C(c2cc(-c3ccc(F)cc3)ccc2C)C(=O)OC12CCCCC2 [Example I-2-c-1]
pest or weed control at 500 g/ha [2]: ≥ 80%
pest or weed control at 500 g/ha [3]: ≥ 80%
chromatographic logP [1]: 4.84

chromatographic logP [1, 8]: 4.85
Structure (SMILES): Cc1ccc(-c2ccc(F)cc2)cc1C1=C(OC(=O)C(C)C)C2(CCCC2)OC1=O [Example I-2-b-1]

Structure (SMILES): Cc1ccc(-c2ccc(F)cc2)cc1C1=C(O)C2(CCCCC2)OC1=O [Example I-2-a-15]
pest or weed control at 500 g/ha [2]: ≥ 80%
pest or weed control at 500 g/ha [3]: ≥ 80%
chromatographic logP [1]: 3.4

Structure (SMILES): O=C1OC2(CCCC2)C(O)=C1c1cc(-c2cc(F)c(F)c(F)c2)ccc1Cl [Example I-2-a-6]
efficacy (effect in %, caterpillars killed) [4]: ≥ 80%
logP [1]: 3.35

Structure (SMILES): COc1ccc(-c2ccc(C)c(C3=C(O)C4(CCOCC4)NC3=O)c2)cc1F [Example I-1-a-2]
pest or weed control at 500 g/ha [2, 9]: ≥ 80%
pest or weed control at 500 g/ha [3]: ≥ 80%

Structure (SMILES): O=C1OC2(CCCCC2)C(O)=C1c1cc(-c2cc(F)c(F)c(F)c2)ccc1Cl [Example I-2-a-9]
logP [1]: 3.65

Structure (SMILES): Cc1ccc(-c2ccc(F)c(F)c2)c(C)c1C1=C(O)C2(CCOCC2)OC1=O [Example I-2-a-16]
logP [1]: 2.88

Structure (SMILES): O=C1OC2(CCCC2)C(O)=C1c1cc(-c2ccc(F)cc2F)ccc1Cl [Example I-2-a-5]
logP [1]: 3.16

Structure (SMILES): Cc1ccc(-c2ccc(F)c(F)c2)cc1C1=C(O)C2(CCCC2)OC1=O [Example I-2-a-3]
logP [1]: 3.25

Structure (SMILES): Cc1ccc(-c2ccc(F)c(F)c2)cc1C1=C(O)C2(CCOCC2)OC1=O [Example I-2-a-13]
logP [1]: 2.69

Structure (SMILES): O=C1OC2(CCCCC2)C(O)=C1c1cc(-c2ccc(F)c(F)c2)ccc1Cl [Example I-2-a-8]
logP [1]: 3.48

Structure (SMILES): O=C1OC2(CCCC2)C(O)=C1c1cc(-c2ccc(F)cc2)ccc1Cl [Example I-2-a-7]
logP [1]: 3.09

Structure (SMILES): Cc1ccc(-c2ccc(F)cc2)c(C)c1C1=C(O)C2(CCOCC2)OC1=O [Example I-2-a-11]
logP [1]: 2.76

Structure (SMILES): O=C1OC2(CCCC2)C(O)=C1c1cc(-c2ccc(F)c(F)c2)ccc1Cl [Example I-2-a-2]
logP [1]: 3.19

Structure (SMILES): Cc1ccc(-c2ccc(F)c(F)c2)c(C)c1C1=C(OC(=O)C(C)C)C2(CCOCC2)OC1=O [Example I-2-b-3]
pest or weed control at 500 g/ha [2, 9]: ≥ 80%

Structure (SMILES): Cc1ccc(-c2ccc(F)c(Cl)c2)cc1C1=C(O)C2(CCCC2)OC1=O [Example I-2-a-4]
logP [1]: 3.50

Structure (SMILES): O=C1NC2(CCOCC2)C(O)=C1c1cc(-c2ccc(F)c(C(F)(F)F)c2)ccc1Cl [Example I-1-a-24]
pest or weed control at 500 g/ha [2, 9]: ≥ 80%
pest or weed control at 500 g/ha [3]: ≥ 80%

chromatographic logP [1, 8]: 5.43
Structure (SMILES): CCOC(=O)C1(OC(=O)Cc2cc(-c3ccc(F)cc3)ccc2C)CCCCC1 [III-1]

Structure (SMILES): CCOC(=O)OC1=C(c2c(C)ccc(-c3ccc(F)cc3)c2C)C(=O)NC12CCOCC2 [Example I-1-c-1]
pest or weed control at 500 g/ha [2, 9]: ≥ 80%

Structure (SMILES): Cc1ccc(-c2ccc(F)cc2)c(C)c1C1=C(OC(=O)C(C)C)C2(CCOCC2)OC1=O [Example I-2-b-2]
pest or weed control at 500 g/ha [3]: ≥ 80%

Structure (SMILES): O=C1OC2(CCCCC2)C(O)=C1c1cc(-c2ccc(F)cc2)ccc1Cl [Example I-2-a-10]
logP [1]: 3.37

Structure (SMILES): COC1=C(c2c(C)ccc(-c3ccc(F)cc3)c2C)C(=O)NC12CCOCC2 [Example I-1-f-1]
pest or weed control at 500 g/ha [2, 9]: ≥ 80%
pest or weed control at 500 g/ha [3]: ≥ 80%

Structure (SMILES): Cc1ccc(-c2cc(F)c(F)c(F)c2)cc1C1=C(O)C2(CCOCC2)OC1=O [Example I-2-a-14]
logP [1]: 2.87

Structure (SMILES): CCC(=O)OC1=C(c2c(C)ccc(-c3ccc(F)cc3)c2C)C(=O)NC12CCOCC2 [Example I-1-b-1]
pest or weed control at 500 g/ha [2, 9]: ≥ 80%

chromatographic logP [1, 8]: 3.12
Structure (SMILES): Cc1ccc(-c2ccc(F)cc2)cc1C1=C(O)C2(CCCC2)OC1=O [Example I-2-a-1]
pest or weed control at 500 g/ha [2, 9]: ≥ 80%
pest or weed control at 500 g/ha [3]: ≥ 80%

Structure (SMILES): Cc1ccc(-c2ccc(F)cc2)c(C)c1C1=C(O)C2(CCOCC2)NC1=O [Example I-1-a-4]
Penetration after 24 h/% EC ([5]; EC alone, average of 8 to 10 measurements): 3%
Penetration after 24 h/% EC + RME (1 g/l) + AS (1 g/l) ([5]; with rapeseed oil methyl ester 1 g/l and ammonium sulphate 1 g/l): 30%
Penetration after 24 h/% EC + RME (1 g/l) ([5]; with rapeseed oil methyl ester 1 g/l): 8%
Kill (%) after 6 d +AS 1000 ppm ([6]; 0.8 ppm active compound): 0%
Kill (%) after 6 d +AS + RME 1000 ppm each ([6]; 0.8 ppm active compound): 5%
Kill (%) after 6 d +RME 1000 pm ([6]; 0.8 ppm active compound): 0%
Kill (%) after 6 d ([6]; 0.8 ppm active compound): 0%
Kill (%) after 6 d +AS 1000 ppm ([6]; 4 ppm active compound): 20%
Kill (%) after 6 d +AS + RME 1000 ppm each ([6]; 4 ppm active compound): 98%
Kill (%) after 6 d +RME 1000 pm ([6]; 4 ppm active compound): 5%
Kill (%) after 6 d ([6]; 4 ppm active compound): 15%

chromatographic logP [1, 8]: 4.52
Structure (SMILES): CCOC(=O)C1(OC(=O)Cc2cc(Br)ccc2C)CCCC1 [III-1′]

Structure (SMILES): Cc1ccc(-c2ccc(F)cc2)cc1C1=C(O)C2(CCOCC2)NC1=O [Example I-1-a-1]
pest or weed control at 500 g/ha [2, 9]: ≥ 80%
pest or weed control at 500 g/ha [3]: ≥ 80%
Kill (%) after 6 d +AS 1000 ppm ([6]; 0.8 ppm active compound): 0%
Kill (%) after 6 d +AS + RME 1000 ppm each ([6]; 0.8 ppm active compound): 15%
Kill (%) after 6 d +RME 1000 pm ([6]; 0.8 ppm active compound): 0%
Kill (%) after 6 d ([6]; 0.8 ppm active compound): 0%
Kill (%) after 6 d +AS 1000 ppm ([6]; 4 ppm active compound): 15%
Kill (%) after 6 d +AS + RME 1000 ppm each ([6]; 4 ppm active compound): 99%
Kill (%) after 6 d +RME 1000 pm ([6]; 4 ppm active compound): 70%
Kill (%) after 6 d ([6]; 4 ppm active compound): 0%
Kill (%) after 6 d +AS + RME 1000 ppm each ([7]; 4 ppm): 60%
Kill (%) after 6 d +AS 1000 ppm ([7]; 4 ppm): 0%
Kill (%) after 6 d +RME 1000 pm ([7]; 4 ppm): 0%
Kill (%) after 6 d ([7]; 4 ppm): 0%
Kill (%) after 6 d +AS + RME 1000 ppm each ([7]; 20 ppm): 80%
Kill (%) after 6 d +AS 1000 ppm ([7]; 20 ppm): 5%
Kill (%) after 6 d +RME 1000 pm ([7]; 20 ppm): 15%
Kill (%) after 6 d ([7]; 20 ppm): 0%
